Measured values from US20240174647A1 (NEURON23, INC., priority 2022, published 2024).

Molecular target: wt human LRRK2, catalytic site (Homo sapiens (Human), UniProt Q5S007)
Test: TR-FRET LanthaScreen Tb Kinase Activity Assay (LRRK2 kinase inhibition)
Format: biochemical
Conditions: 2 nM wt human LRRK2, 400 nM fluorescein-ERM (LRRKtide) peptide, 38 μM ATP, 120 minutes at room temperature
How it was run: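 LanthaScreen TR-FRET with 2 nM wt human LRRK2 catalytic site, 400 nM fluorescein-ERM (LRRKtide) peptide and 38 µM ATP in Kinase Buffer A; 120 min at room temperature. Phosphorylation detected with EDTA and Tb-anti-pLRRKtide after 60 min; IC50 from emission ratios.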

Chain of wt human LRRK2, catalytic site (Q5S007 1879-2138): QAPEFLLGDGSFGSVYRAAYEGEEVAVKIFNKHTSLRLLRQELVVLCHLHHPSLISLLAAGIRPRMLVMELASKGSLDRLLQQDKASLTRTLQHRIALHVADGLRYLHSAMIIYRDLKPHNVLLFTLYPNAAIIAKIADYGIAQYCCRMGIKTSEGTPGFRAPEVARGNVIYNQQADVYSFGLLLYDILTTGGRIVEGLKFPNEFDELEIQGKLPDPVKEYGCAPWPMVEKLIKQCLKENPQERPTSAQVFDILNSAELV

Compound | IC50
CNc1nc(Nc2ccc3cn[nH]c3c2)ncc1C(F)(F)F [Example 1, N2-(1H-indazol-6-yl)-N4-methyl-5-(trifluoromethyl)pyrimidine-2,4-diamine] | < 50 nM
CNc1nc(Nc2ccc3c(C(=O)N4CCOCC4)n[nH]c3c2)ncc1C(F)(F)F [Example 9, (6-((4-(methylamino)-5-(trifluoromethyl)pyrimidin-2-yl)amino)-1H-indazol-3-yl)(morpholino)methanone] | < 50 nM
CNc1nc(Nc2ccc(C)c3[nH]ncc23)ncc1C(F)(F)F [Example 26, N4-methyl-N2-(7-methyl-1H-indazol-4-yl)-5-(trifluoromethyl)pyrimidine-2,4-diamine] | < 50 nM
C=Cc1cc2cn[nH]c2cc1Nc1ncc(C(F)(F)F)c(NC)n1 [Example 120, N^4-methyl-5-(trifluoromethyl)-N^2-(5-vinyl-1H-indazol-6-yl)pyrimidine-2,4-diamine] | 50 to 200 nM
CNc1nc(Nc2ccc3c(Br)n[nH]c3c2)ncc1C(F)(F)F [Example 7, N2-(3-bromo-1H-indazol-6-yl)-N4-methyl-5-(trifluoromethyl)pyrimidine-2,4-diamine] | < 50 nM
CNc1nc(Nc2cccc3c2cnn3S(=O)(=O)C2CC2)ncc1C(F)(F)F [Example 33, N2-(1-(cyclopropylsulfonyl)-1H-indazol-4-yl)-N4-methyl-5-(trifluoromethyl)pyrimidine-2,4-diamine] | < 50 nM
CNc1nc(Nc2ccc(C3=CCOCC3)c3c2cnn3C)ncc1C(F)(F)F [Example 86, N2-(7-(3,6-dihydro-2H-pyran-4-yl)-1-methyl-11H-indazol-4-yl)-N4-methyl-5-(trifluoromethyl)pyrimidine-2,4-diamine] | < 50 nM
CNc1nc(Nc2cccc3cnn(C)c23)ncc1C(F)(F)F [Example 76, N4-methyl-N2-(1-methyl-1-indazol-7-yl)-5-(trifluoromethyl)pyrimidine-2,4-diamine] | ≥ 200 nM
O=S(=O)(CCn1ncc2c(Nc3ncc(C(F)(F)F)c(NC4CC4)n3)cccc21)C1CC1 [Example 170, N^4-cyclopropyl-N^2-(1-(2-(cyclopropylsulfonyl)ethyl)-1H-indazol-4-yl)-5-(trifluoromethyl)pyrimidine-2,4-diamine] | < 50 nM
CNc1nc(Nc2cc(C(C)C)cc3c2cnn3C)ncc1C(F)(F)F [Example 43, N2-(6-isopropyl-1-methyl-1H-indazol-4-yl)-N4-methyl-5-(trifluoromethyl) pyrimidine-2,4-diamine] | < 50 nM
CNc1nc(Nc2cccc3c2cnn3C)ncc1Cl [Example 79, 5-chloro-N4-methyl-N2-(1-methyl-1H-indazol-4-yl)pyrimidine-2,4-diamine] | < 50 nM
OCCNc1nc(Nc2cccc3c2cnn3CC(F)F)ncc1C(F)(F)F [Example 141, 2-[[2-[[1-(2,2-difluoroethyl)indazol-4-yl]amino]-5-(trifluoromethyl)pyrimidin-4-yl]amino]ethanol] | < 50 nM
CNc1nc(Nc2cc(F)cc3c2cnn3C)ncc1C(F)(F)F [Example 42, N2-(6-fluoro-1-methyl-1H-indazol-4-yl)-N4-methyl-5-(trifluoromethyl) pyrimidine-2,4-diamine] | < 50 nM
CNc1nc(Nc2ccc(/C=C/C(=O)N3CCOCC3)c3[nH]ncc23)ncc1C(F)(F)F [Example 56, (E)-3-(4-((4-(methylamino)-5-(trifluoromethyl)pyrimidin-2-yl)amino)-1H-indazol-7-yl)-1-morpholinoprop-2-en-1-one] | < 50 nM
FC(F)(F)c1cnc(Nc2cccc3c2cnn3C2CC2)nc1NC1CC1 [Example 190, N^4-cyclopropyl-N^2-(1-cyclopropyl-1H-indazol-4-yl)-5-(trifluoromethyl) pyrimidine-2,4-diamine] | < 50 nM
CC(C)(CS(C)(=O)=O)n1ncc2c(Nc3ncc(C(F)(F)F)c(NC4CC4)n3)cccc21 [Example 195, N^4-cyclopropyl-N^2-(1-(2-methyl-1-(methylsulfonyl)propan-2-yl)-1H-indazol-4-yl)-5-(trifluoromethyl)pyrimidine-2,4-diamine] | < 50 nM
CCNc1nc(Nc2cccc3c2cnn3S(C)(=O)=O)nc2[nH]cc(Cl)c12 [Example 151, 5-chloro-N^4-ethyl-N^2-(1-methylsulfonylindazol-4-yl)-7H-pyrrolo[2,3-d]pyrimidine-2,4-diamine] | < 50 nM
CNc1nc(Nc2ccc(C3CCN(C)CC3)c3c2cnn3C)ncc1C(F)(F)F [Example 82, N4-methyl-N2-(1-methyl-7-(1-methylpiperidin-4-yl)-1H-indazol-4-yl)-5-(trifluoromethyl)pyrimidine-2,4-diamine] | < 50 nM
CNc1nc(Nc2ccc(C3=CCOCC3)c3c2cnn3CC#N)ncc1C(F)(F)F [Example 83, 2-(7-(3,6-dihydro-2H-pyran-4-yl)-4-((4-(methylamino)-5-(trifluoromethyl)pyrimidin-2-yl)amino)-1H-indazol-1-yl)acetonitrile] | < 50 nM

Compound | IC50
CNc1nc(Nc2c(C)[nH]c3c(C#N)cccc23)ncc1C(F)(F)F [Example 66, 2-methyl-3-((4-(methylamino)-5-(trifluoromethyl)pyrimidin-2-yl)amino)-1H-indole-7-carbonitrile] | 50 to 200 nM
CNc1nc(Nc2cccc3c2cnn3CCS(C)(=O)=O)ncc1C(F)(F)F [Example 188, N^4-methyl-N^2-[1-(2-methylsulfonylethyl)indazol-4-yl]-5-(trifluoromethyl) pyrimidine-2,4-diamine] | < 50 nM
CS(=O)(=O)CCn1ncc2c(Nc3ncc(C(F)(F)F)c(NC4CCC4)n3)cccc21 [Example 163, N^4-cyclobutyl-N^2-(1-(2-(methylsulfonyl)ethyl)-1H-indazol-4-yl)-5-(trifluoromethyl)pyrimidine-2,4-diamine] | < 50 nM
CC(C)(O)Cn1ncc2c(Nc3ncc(C(F)F)c(NC4CC4)n3)ccc(F)c21 [Example 175, 1-[4-[[4-(cyclopropylamino)-5-(difluoromethyl)pyrimidin-2-yl]amino]-7-fluoro-indazol-1-yl]-2-methyl-propan-2-ol] | < 50 nM
CC(C)Nc1nc(Nc2cccc3c2cnn3CC#N)ncc1C(F)(F)F [Example 110, 2-(4-((4-(isopropylamino)-5-(trifluoromethyl)pyrimidin-2-yl)amino)-1H-indazol-1-yl)acetonitrile] | ≥ 200 nM
CNc1nc(Nc2cc(F)cc3[nH]ncc23)ncc1C(F)(F)F [Example 25, N2-(6-fluoro-1H-indazol-4-yl)-N4-methyl-5-(trifluoromethyl)pyrimidine-2,4-diamine] | < 50 nM
CNc1nc(Nc2cc(C)cc3c2cnn3C)ncc1C(F)(F)F [Example 45, N2-(1,6-dimethyl-1H-indazol-4-yl)-N4-methyl-5-(trifluoromethyl)pyrimidine-2,4-diamine] | < 50 nM
CC(C)Nc1nc(Nc2ccc3c4c2cnn4CCO3)ncc1C(F)(F)F [Example 180, N^4-isopropyl-N^2-(9-oxa-1,2-diazatricyclo[6.3.1.04,12]dodeca-2,4,6,8(12)-tetraen-5-yl)-5-(trifluoromethyl)pyrimidine-2,4-diamine] | < 50 nM
FCCNc1nc(Nc2cccc3c2cnn3CC(F)F)ncc1C(F)(F)F [Example 142, N^2-[1-(2,2-difluoroethyl)indazol-4-yl]-N^4-(2-fluoroethyl)-5-(trifluoromethyl) pyrimidine-2,4-diamine] | < 50 nM
CNc1nc(Nc2c(C)nn3c(C#N)cccc23)ncc1C(F)(F)F [Example 65, 2-methyl-3-((4-(methylamino)-5-(trifluoromethyl)pyrimidin-2-yl)amino)pyrazolo[1,5-a]pyridine-7-carbonitrile] | ≥ 200 nM
FC(F)(F)c1cnc(Nc2cccc3c2cnn3CC2COC2)nc1NC1CC1 [Example 197, N^4-cyclopropyl-N^2-(1-(oxetan-3-ylmethyl)-1H-indazol-4-yl)-5-(trifluoromethyl) pyrimidine-2,4-diamine] | 50 to 200 nM
CC(C)(C#N)n1ncc2c(Nc3ncc(C(F)(F)F)c(NC4CC4)n3)ccnc21 [Example 189, 2-(4-((4-(cyclopropylamino)-5-(trifluoromethyl)pyrimidin-2-yl)amino)-1H-pyrazolo[3,4-b]pyridin-yl)-2-methylpropanenitrile] | < 50 nM
FC(F)Cn1ncc2c(Nc3ncc(C(F)(F)F)c(NC4CC4)n3)cccc21 [Example 134, N^4-cyclopropyl-N2-[1-(2,2-difluoroethyl)indazol-4-yl]-5-(trifluoromethyl) pyrimidine-2,4-diamine] | < 50 nM
CNc1nc(Nc2ccc(OC)c3c2cnn3C)ncc1C(F)(F)F [Example 47, N2-(7-methoxy-1-methyl-1H-indazol-4-yl)-N4-methyl-5-(trifluoromethyl) pyrimidine-2,4-diamine] | < 50 nM
Cc1ccc(Nc2ncc(C(F)(F)F)c(NC3CC3)n2)c2cnn(CCS(C)(=O)=O)c12 [Example 174, N4-cyclopropyl-N2-(7-methyl-1-(2-(methylsulfonyl)ethyl)-1H-indazol-4-yl)-5-(trifluoromethyl)pyrimidine-2,4-diamine] | < 50 nM
CNc1nc(Nc2ccc3c(cnn3C)c2)ncc1C(F)(F)F [Example 73, N4-methyl-N2-(1-methyl-1H-indazol-5-yl)-5-(trifluoromethyl)pyrimidine-2,4-diamine] | < 50 nM
CCn1ncc2c(Nc3ncc(C(F)(F)F)c(NC)n3)cccc21 [Example 98, N2-(1-ethyl-1H-indazol-4-yl)-N4-methyl-5-(trifluoromethyl)pyrimidine-2,4 diamine] | < 50 nM
CS(=O)(=O)n1ncc2c(Nc3ncc(C(F)(F)F)c(N[C@@H]4CCOC4)n3)cccc21 [Example 148, (R)—N^2-(1-(methylsulfonyl)-1H-indazol-4-yl)-N-(tetrahydrofuran-3-yl)-5-(trifluoromethyl)pyrimidine-2,4-diamine] | < 50 nM
CC(C)(C)n1ncc2c(Nc3ncc(C(F)(F)F)c(NC4CC4)n3)cccc21 [Example 196, N^2-(1-tert-butylindazol-4-yl)-N^4-cyclopropyl-5-(trifluoromethyl)pyrimidine-2,4-diamine] | < 50 nM
